According to patent US20260216176A1, “USE OF PCLX-001 OR PCLX-002 AS A RADIOSENSITIZER” (ACYLEX PHARMACEUTICALS INC., priority 2023, published 2026):
Several values for one entry are separate records, joined by “and”; a condition that tells them apart may be missing. Identical values can stand only once. Like-named read-outs stand apart in the source and are kept apart here.

Experiment: Plasma, brain and CSF pharmacokinetics and brain tissue accumulation in mice (LC-MS/MS)
Assay type: in vivo, male C57BL/6 mice
Settings: for Cmax: read-out: C0/Cmax; for half-life: read-out: T½ (converted)
[1] = male, C57BL/6, mouse, oral gavage 5 mg/kg, Brain
[2] = male, C57BL/6, mouse, oral gavage 5 mg/kg, CSF
[3] = male, C57BL/6, mouse, oral gavage 5 mg/kg, Plasma

Which results are given for `Cc1c(N[S+](=O)(O)c2c(Cl)cc(-c3ccnc(N4CCNCC4)c3)cc2Cl)c(CC(C)C)nn1C` [PCLX-001]?
Plasma Conc. (5 mg/kg oral, time point 0.00 h, individual animals): 0.00 nM; concentration at 8 h (5 mg/kg oral, time point 0.00 h, individual animals, read-out: Brain Conc.): 0.00 nM; concentration at 24 h (5 mg/kg oral, time point 0.00 h, individual animals, read-out: CSF Conc.): 0.00 nM; Plasma Conc. (5 mg/kg oral, time point 0.25 h, individual animals): 6762.56 nM and 8570.40 nM; concentration at 8 h (5 mg/kg oral, time point 0.25 h, individual animals, read-out: Brain Conc.): 73.74 nM and 86.13 nM; concentration at 24 h (5 mg/kg oral, time point 0.25 h, individual animals, read-out: CSF Conc.): 11.50 nM and 3.78 nM and 7.47 nM; Plasma Conc. (5 mg/kg oral, time point 0.50 h, individual animals): 8294.21 nM and 6591.89 nM; concentration at 8 h (5 mg/kg oral, time point 0.50 h, individual animals, read-out: Brain Conc.): 122.31 nM and 138.42 nM; concentration at 24 h (5 mg/kg oral, time point 0.50 h, individual animals, read-out: CSF Conc.): 4.19 nM and 2.89 nM; Plasma Conc. (5 mg/kg oral, time point 1.00 h, individual animals): 9051.65 nM and 8883.32 nM; concentration at 8 h (5 mg/kg oral, time point 1.00 h, individual animals, read-out: Brain Conc.): 54.48 nM and 64.47 nM; concentration at 24 h (5 mg/kg oral, time point 1.00 h, individual animals, read-out: CSF Conc.): 2.72 nM and 8.67 nM and 3.50 nM; Plasma Conc. (5 mg/kg oral, time point 2.00 h, individual animals): 5724.05 nM and 5659.43 nM; concentration at 8 h (5 mg/kg oral, time point 2.00 h, individual animals, read-out: Brain Conc.): 185.79 nM and 81.69 nM and 204.51 nM; concentration at 24 h (5 mg/kg oral, time point 2.00 h, individual animals, read-out: CSF Conc.): 7.26 nM and 15.58 nM and 16.86 nM; Plasma Conc. (5 mg/kg oral, time point 4.00 h, individual animals): 13975.97 nM and 6234.47 nM and 11667.07 nM; concentration at 8 h (5 mg/kg oral, time point 4.00 h, individual animals, read-out: Brain Conc.): 243.03 nM and 114.75 nM and 171.09 nM; concentration at 24 h (5 mg/kg oral, time point 4.00 h, individual animals, read-out: CSF Conc.): 15.26 nM and 6.67 nM and 87.98 nM; Plasma Conc. (5 mg/kg oral, time point 8.00 h, individual animals): 2821.68 nM and 6573.92 nM and 6832.35 nM; concentration at 8 h (5 mg/kg oral, time point 8.00 h, individual animals, read-out: Brain Conc.): 135.06 nM and 148.56 nM; concentration at 24 h (5 mg/kg oral, time point 8.00 h, individual animals, read-out: CSF Conc.): 30.28 nM and 5.97 nM and 7.19 nM; Plasma Conc. (5 mg/kg oral, time point 24.00 h, individual animals): 6.38 nM and 4.10 nM; concentration at 8 h (5 mg/kg oral, time point 24.00 h, individual animals, read-out: Brain Conc.): 0.00 nM and 8.13 nM and 12.81 nM; concentration at 24 h (5 mg/kg oral, time point 24.00 h, individual animals, read-out: CSF Conc.): 0.00 nM; time of peak brain drug concentrations (after oral administration): approximately 4 h; concentration at 0.5 h (male, C57BL/6, mouse, CSF, oral, 5 mg/kg, 5 mg/kg oral, time point 0.50 h, individual animals, read-out: CSF Conc.): 3.44 nM; concentration at 24 h (male, C57BL/6, mouse, CSF, oral, 5 mg/kg, 5 mg/kg oral, time point 24.00 h, individual animals, read-out: CSF Conc.): 0 nM; Kp at 0.25 h (male, C57BL/6, mouse, brain and CSF, 5 mg/kg oral, time point 0.25 h, read-out: Brain/CSF-Kp): 13; concentration at 0.25 h (male, C57BL/6, mouse, brain, oral, 5 mg/kg, 5 mg/kg oral, time point 0.25 h, individual animals, read-out: Brain Conc.): 135 nM; concentration at 0.25 h (male, C57BL/6, mouse, brain, oral, 5 mg/kg, 5 mg/kg oral, time point 0.25 h, read-out: Mean Brain Conc.): 98.3 nM; concentration at 0.5 h (male, C57BL/6, mouse, brain, oral, 5 mg/kg, 5 mg/kg oral, time point 0.50 h, individual animals, read-out: Brain Conc.): 108 nM; concentration at 0.5 h (male, C57BL/6, mouse, brain, oral, 5 mg/kg, 5 mg/kg oral, time point 0.50 h, read-out: Mean Brain Conc.): 123 nM; concentration at 1 h (male, C57BL/6, mouse, brain, oral, 5 mg/kg, 5 mg/kg oral, time point 1.00 h, individual animals, read-out: Brain Conc.): 75.5 nM; concentration at 1 h (male, C57BL/6, mouse, brain, oral, 5 mg/kg, 5 mg/kg oral, time point 1.00 h, read-out: Mean Brain Conc.): 64.8 nM; concentration at 2 h (male, C57BL/6, mouse, brain, oral, 5 mg/kg, 5 mg/kg oral, time point 2.00 h, read-out: Mean Brain Conc.): 157 nM; concentration at 4 h (male, C57BL/6, mouse, brain, oral, 5 mg/kg, 5 mg/kg oral, time point 4.00 h, read-out: Mean Brain Conc.): 176 nM; concentration at 8 h (male, C57BL/6, mouse, brain, oral, 5 mg/kg, 5 mg/kg oral, time point 8.00 h, individual animals, read-out: Brain Conc.): 79.3 nM; concentration at 8 h (male, C57BL/6, mouse, brain, oral, 5 mg/kg, 5 mg/kg oral, time point 8.00 h, read-out: Mean Brain Conc.): 121 nM; concentration at 24 h (male, C57BL/6, mouse, brain, oral, 5 mg/kg, 5 mg/kg oral, time point 24.00 h, read-out: Mean Brain Conc.): 6.98 nM; Kp at 0.5 h (male, C57BL/6, mouse, brain/CSF, 5 mg/kg oral, time point 0.50 h, read-out: Brain/CSF-Kp): 35; Kp at 1 h (male, C57BL/6, mouse, brain/CSF, 5 mg/kg oral, time point 1.00 h, read-out: Brain/CSF-Kp): 13.1; Kp at 2 h (male, C57BL/6, mouse, brain/CSF, 5 mg/kg oral, time point 2.00 h, read-out: Brain/CSF-Kp): 11.9; Kp at 4 h (male, C57BL/6, mouse, brain/CSF, 5 mg/kg oral, time point 4.00 h, read-out: Brain/CSF-Kp): 4.81; Kp at 8 h (male, C57BL/6, mouse, brain/CSF, 5 mg/kg oral, time point 8.00 h, read-out: Brain/CSF-Kp): 8.35; Kp at 0.25 h (male, C57BL/6, mouse, brain/plasma, 5 mg/kg oral, time point 0.25 h, read-out: B/P-Kp (brain to plasma ratio)): 0.01; Kp at 0.5 h (male, C57BL/6, mouse, brain/plasma, 5 mg/kg oral, time point 0.50 h, read-out: B/P-Kp (brain to plasma ratio)): 0.02; Kp at 1 h (male, C57BL/6, mouse, brain/plasma, 5 mg/kg oral, time point 1.00 h, read-out: B/P-Kp (brain to plasma ratio)): 0.01; Kp at 2 h (male, C57BL/6, mouse, brain/plasma, 5 mg/kg oral, time point 2.00 h, read-out: B/P-Kp (brain to plasma ratio)): 0.02; Kp at 4 h (male, C57BL/6, mouse, brain/plasma, 5 mg/kg oral, time point 4.00 h, read-out: B/P-Kp (brain to plasma ratio)): 0.02; Kp at 8 h (male, C57BL/6, mouse, brain/plasma, 5 mg/kg oral, time point 8.00 h, read-out: B/P-Kp (brain to plasma ratio)): 0.02; Kp at 24 h (male, C57BL/6, mouse, brain/plasma, 5 mg/kg oral, time point 24.00 h, read-out: B/P-Kp (brain to plasma ratio)): 1.24; concentration at 0.25 h (male, C57BL/6, mouse, plasma, oral, 5 mg/kg, 5 mg/kg oral, time point 0.25 h, individual animals, read-out: Plasma Conc.): 9590 nM; concentration at 0.25 h (male, C57BL/6, mouse, plasma, oral, 5 mg/kg, 5 mg/kg oral, time point 0.25 h, read-out: Mean Plasma Conc.): 8310 nM; concentration at 0.5 h (male, C57BL/6, mouse, plasma, oral, 5 mg/kg, 5 mg/kg oral, time point 0.50 h, individual animals, read-out: Plasma Conc.): 4650 nM; concentration at 0.5 h (male, C57BL/6, mouse, plasma, oral, 5 mg/kg, 5 mg/kg oral, time point 0.50 h, read-out: Mean Plasma Conc.): 6510 nM; concentration at 1 h (male, C57BL/6, mouse, plasma, oral, 5 mg/kg, 5 mg/kg oral, time point 1.00 h, individual animals, read-out: Plasma Conc.): 7240 nM; concentration at 1 h (male, C57BL/6, mouse, plasma, oral, 5 mg/kg, 5 mg/kg oral, time point 1.00 h, read-out: Mean Plasma Conc.): 8390 nM; concentration at 2 h (male, C57BL/6, mouse, plasma, oral, 5 mg/kg, 5 mg/kg oral, time point 2.00 h, individual animals, read-out: Plasma Conc.): 9730 nM; concentration at 2 h (male, C57BL/6, mouse, plasma, oral, 5 mg/kg, 5 mg/kg oral, time point 2.00 h, read-out: Mean Plasma Conc.): 7040 nM; concentration at 4 h (male, C57BL/6, mouse, plasma, oral, 5 mg/kg, 5 mg/kg oral, time point 4.00 h, read-out: Mean Plasma Conc.): 10600 nM; concentration at 8 h (male, C57BL/6, mouse, plasma, oral, 5 mg/kg, 5 mg/kg oral, time point 8.00 h, read-out: Mean Plasma Conc.): 5410 nM; concentration at 24 h (male, C57BL/6, mouse, plasma, oral, 5 mg/kg, 5 mg/kg oral, time point 24.00 h, individual animals, read-out: Plasma Conc.): 6.39 nM; concentration at 24 h (male, C57BL/6, mouse, plasma, oral, 5 mg/kg, 5 mg/kg oral, time point 24.00 h, read-out: Mean Plasma Conc.): 5.63 nM; AUC(0-t) [1]: 2.15 µM·h; Tmax [1]: 4 h; Cmax [1]: 176 nM; Kp (male, C57BL/6, mouse, oral gavage 5 mg/kg, Brain, read-out: T/P ratio (Tissue to plasma AUClast ratio)): 0.02; half-life [1]: 4.17 h; AUC(0-t) [2]: 0.166 µM·h; Tmax [2]: 4 h; Cmax [2]: 36.6 nM; AUC(0-t) [3]: 108 µM·h; Tmax [3]: 4 h; bioavailability [3]: 97%; Cmax [3]: 10600 nM; half-life [3]: 1.77 h
